PubChem BioAssay AID1963854 (Molecular Pharmacology Branch, DTP, NCI, 2024)

Tested on: 186277-243-T-J2-PDC complex spheroid viability
Assay: Anticancer human tumor 186277-243-T-J2-PDC patient-derived colon adenocarcinoma cell line growth inhibition [POLQ]
Conditions: for IC50: curve of first compound; for viability, T/C: stronger effect = lower value; active = viability on the fitted dose curve at most 10% of control; inactive = the rest
Summary of the method: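 Three-cell-type spheroids modelling solid tumor plus stroma served as the readout system; POL inhibitors were tested individually and in combination, concentration ranges set by clinical Cmax where known.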

[1] = second compound 0.0316 µM, first compound 0.0316 µM
[2] = second compound 0.0316 µM, first compound 0.1 µM
[3] = second compound 0.0316 µM, first compound 0.316 µM
[4] = second compound 0.0316 µM, first compound 1 µM
[5] = second compound 0.0316 µM, first compound 3.16 µM
[6] = second compound 0.0316 µM, first compound 10 µM
[7] = second compound 0.1 µM, first compound 0.0316 µM
[8] = second compound 0.1 µM, first compound 0.1 µM
[9] = second compound 0.1 µM, first compound 0.316 µM
[10] = second compound 0.1 µM, first compound 1 µM
[11] = second compound 0.1 µM, first compound 3.16 µM
[12] = second compound 0.1 µM, first compound 10 µM
[13] = second compound 0.316 µM, first compound 0.0316 µM
[14] = second compound 0.316 µM, first compound 0.1 µM
[15] = second compound 0.316 µM, first compound 0.316 µM
[16] = second compound 0.316 µM, first compound 1 µM
[17] = second compound 0.316 µM, first compound 3.16 µM
[18] = second compound 0.316 µM, first compound 10 µM
[19] = second compound 1 µM, first compound 0.0316 µM
[20] = second compound 1 µM, first compound 0.1 µM
[21] = second compound 1 µM, first compound 0.316 µM
[22] = second compound 1 µM, first compound 1 µM
[23] = second compound 1 µM, first compound 3.16 µM
[24] = second compound 1 µM, first compound 10 µM
[25] = second compound 3.16 µM, first compound 0.0316 µM
[26] = second compound 3.16 µM, first compound 0.1 µM
[27] = second compound 3.16 µM, first compound 0.316 µM
[28] = second compound 3.16 µM, first compound 1 µM
[29] = second compound 3.16 µM, first compound 3.16 µM
[30] = second compound 3.16 µM, first compound 10 µM
[31] = second compound 10 µM, first compound 0.0316 µM
[32] = second compound 10 µM, first compound 0.1 µM
[33] = second compound 10 µM, first compound 0.316 µM
[34] = second compound 10 µM, first compound 1 µM
[35] = second compound 10 µM, first compound 3.16 µM
[36] = second compound 10 µM, first compound 10 µM
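Also: spheroids exposed to compounds for seven days.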
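For viability, T/C in this document: 100% = DMSO vehicle control viability.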

O=C(Nc1ccc(O)c(NS(=O)(=O)c2ccc(F)cc2)c1)c1ccc(-c2ccccc2)cc1 + Cc1cccc(N(C)C(=O)C2C(O)CCN2c2nc(C)cc(C(F)(F)F)c2C#N)c1
inactive: viability, T/C [1] 93.9% | viability, T/C [2] 98.5% | viability, T/C [3] 108% | viability, T/C [4] 86.1% | viability, T/C [5] 116% | viability, T/C [6] 107% | viability, T/C [7] 108% | viability, T/C [8] 102% | viability, T/C [9] 104% | viability, T/C [10] 88.9% | viability, T/C [11] 108% | viability, T/C [12] 105% | viability, T/C [13] 86.6% | viability, T/C [14] 106% | viability, T/C [15] 110% | viability, T/C [16] 103% | viability, T/C [17] 102% | viability, T/C [18] 108% | viability, T/C [19] 95% | viability, T/C [20] 111% | viability, T/C [21] 103% | viability, T/C [22] 104% | viability, T/C [23] 107% | viability, T/C [24] 109% | viability, T/C [25] 102% | viability, T/C [26] 94.8% | viability, T/C [27] 102% | viability, T/C [28] 90.8% | viability, T/C [29] 103% | viability, T/C [30] 112% | viability, T/C [31] 100% | viability, T/C [32] 106% | viability, T/C [33] 86.7% | viability, T/C [34] 95.2% | viability, T/C [35] 107% | viability, T/C [36] 115%
> 10 µM: IC50 (second compound 0.0316 µM) | IC50 (second compound 0.1 µM) | IC50 (second compound 0.316 µM) | IC50 (second compound 1 µM) | IC50 (second compound 3.16 µM) | IC50 (second compound 10 µM)

CCc1cc2c(N3CCc4c(cc(Cn5ccnc5)cc4-c4cn(C)nc4C(F)(F)F)C3=O)ccnc2c(OC)n1 + Nc1ccc(C#CCN(C(=O)Cc2ncc(C(F)(F)F)cc2C(F)(F)F)c2ccc(F)cc2)nn1
inactive: viability, T/C [1] 94.6% | viability, T/C [2] 95.7% | viability, T/C [3] 91.6% | viability, T/C [4] 85.6% | viability, T/C [5] 96.3% | viability, T/C [6] 111% | viability, T/C [7] 90.2% | viability, T/C [8] 92.2% | viability, T/C [9] 100% | viability, T/C [10] 97.8% | viability, T/C [11] 119% | viability, T/C [12] 95.5% | viability, T/C [13] 88.8% | viability, T/C [14] 111% | viability, T/C [15] 90.9% | viability, T/C [16] 108% | viability, T/C [17] 104% | viability, T/C [18] 114% | viability, T/C [19] 103% | viability, T/C [20] 102% | viability, T/C [21] 93.1% | viability, T/C [22] 94.6% | viability, T/C [23] 110% | viability, T/C [24] 105% | viability, T/C [25] 109% | viability, T/C [26] 98.7% | viability, T/C [27] 112% | viability, T/C [28] 100% | viability, T/C [29] 106% | viability, T/C [30] 94.2% | viability, T/C [31] 117% | viability, T/C [32] 99% | viability, T/C [33] 100% | viability, T/C [34] 117% | viability, T/C [35] 121% | viability, T/C [36] 90.9%
> 10 µM: IC50 (second compound 0.0316 µM) | IC50 (second compound 0.1 µM) | IC50 (second compound 0.316 µM) | IC50 (second compound 1 µM) | IC50 (second compound 3.16 µM) | IC50 (second compound 10 µM)
